The source of these data is ChEMBL document CHEMBL5696441 (Nat Chem Biol, 2011).

Assay [1] addresses Serine/threonine-protein kinase OSR1 (Homo sapiens) (UniProt O95747). As to the kind of experiment: Inhibition of OSR1 (unknown origin) assessed as remaining activity at 1 uM by Kinome scan method relative to control.
The target of assay [2] is Proto-oncogene tyrosine-protein kinase ROS (Homo sapiens) (UniProt P08922). The assay can be described thus: Inhibition of human ROS assessed as residual activity at 1 uM using poly(Ala,Glu,Lys,Tyr)6:2:5:1 as substrate in presence of 33P-ATP by ProQinase assay relative to control.
The target of assay [3] is Fibroblast growth factor receptor 4 (Homo sapiens) (UniProt P22455). The assay can be described thus: Inhibition of FGFR4 (unknown origin) assessed as remaining activity at 1 uM by Kinome scan method relative to control.
Assay [4] has as its target Ephrin type-A receptor 4 (Homo sapiens) (UniProt P54764). The assay can be described thus: Inhibition of human EPHA4 assessed as residual activity at 1 uM using polyEY as substrate in presence of 33P-ATP by ProQinase assay relative to control.
Assay [5] concerns the target Eukaryotic translation initiation factor 2-alpha kinase 3 (Homo sapiens) (UniProt Q9NZJ5). The assay can be described thus: Inhibition of human EIF2AK3 assessed as residual activity at 1 uM using casein as substrate in presence of 33P-ATP by ProQinase assay relative to control.
The target of assay [6] is CDK8/Cyclin C (Homo sapiens) (UniProt P49336+P24863). The assay can be described thus: Inhibition of human CDK8/CyclinC assessed as residual activity at 1 uM using RBER-CHKtide as substrate in presence of 33P-ATP by ProQinase assay relative to control. The assay is classed as protein-complex assay.
Assay [7] deals with Proto-oncogene tyrosine-protein kinase Src (Homo sapiens) (UniProt P12931). As to the kind of experiment: Inhibition of human GST/His-tagged SRC assessed as residual activity at 1 uM using PolyEY as substrate in presence of 33P-ATP by ProQinase assay relative to control.
Assay [8] has as its target MAP/microtubule affinity-regulating kinase 3 (Homo sapiens) (UniProt P27448). As to the kind of experiment: Inhibition of human MARK3 assessed as residual activity at 1 uM using RBER-CHKtide as substrate in presence of 33P-ATP by ProQinase assay relative to control.
Assay [9] deals with Tyrosine-protein kinase JAK2 (Homo sapiens) (UniProt O60674). As to the kind of experiment: Inhibition of human JAK2 assessed as residual activity at 1 uM using poly(Ala,Glu,Lys,Tyr)6:2:5:1 as substrate in presence of 33P-ATP by ProQinase assay relative to control.
In assay [10] the target is Cyclin-dependent kinase 2/cyclin E1 (Homo sapiens) (UniProt P24864+P24941). The assay can be described thus: Inhibition of human CDK2/CycE1 assessed as residual activity at 1 uM using RBER-CHKtide as substrate in presence of 33P-ATP by ProQinase assay relative to control. The assay is classed as protein-complex assay.
For assay [11], the system named is Hepatocyte growth factor receptor (Homo sapiens), P08581 [M1250T]. As to the kind of experiment: Inhibition of MET M1250T mutant (unknown origin) assessed as remaining activity at 1 uM by Kinome scan method relative to control.
For assay [12], the target named is T1, Mitogen-activated protein kinase 12 (Homo sapiens) (UniProt P53778).
T1 sequence (whole entry): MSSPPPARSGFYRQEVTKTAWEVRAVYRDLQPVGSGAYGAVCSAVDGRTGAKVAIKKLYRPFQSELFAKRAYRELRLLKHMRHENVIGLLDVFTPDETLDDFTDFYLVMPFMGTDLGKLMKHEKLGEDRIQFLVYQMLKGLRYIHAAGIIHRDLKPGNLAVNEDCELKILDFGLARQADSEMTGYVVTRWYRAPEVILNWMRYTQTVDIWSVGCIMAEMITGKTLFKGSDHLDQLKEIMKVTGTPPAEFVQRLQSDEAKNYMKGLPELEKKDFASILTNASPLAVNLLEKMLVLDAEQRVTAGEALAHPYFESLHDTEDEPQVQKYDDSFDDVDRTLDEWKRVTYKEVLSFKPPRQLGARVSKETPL
As to the kind of experiment: Inhibition of human P38gamma assessed as residual activity at 1 uM using RBER-IRStide as substrate in presence of 33P-ATP by ProQinase assay relative to control.

For assay [13], the target named is Ephrin type-A receptor 8 (Homo sapiens) (UniProt P29322). As to the kind of experiment: Inhibition of human EPHA8 assessed as residual activity at 1 uM using polyEy as substrate in presence of 33P-ATP by ProQinase assay relative to control.
Assay [14] relates to Leucine-rich repeat serine/threonine-protein kinase 2 (Homo sapiens), Q5S007 [R1441C]. As to the kind of experiment: Inhibition of human LRRK2 R1441C mutant assessed as residual activity at 1 uM using RBER-CHKtide as substrate in presence of 33P-ATP by ProQinase assay relative to control.
The target in assay [15] is Serine/threonine-protein kinase haspin (Homo sapiens) (UniProt Q8TF76). The assay can be described thus: Inhibition of human GSG2 assessed as residual activity at 1 uM using histon H3 as substrate in presence of 33P-ATP by ProQinase assay relative to control.
Assay [16] has as its target NUAK family SNF1-like kinase 2 (Homo sapiens) (UniProt Q9H093). The assay can be described thus: Inhibition of human SNARK assessed as residual activity at 1 uM using histone H2B as substrate in presence of 33P-ATP by ProQinase assay relative to control.
For a further assay, the system named is Mus musculus. The assay can be described thus: In vivo anti-inflammatory activity in Gal/LPS induced mouse assessed as inhibition in TNF-alpha release at 3 mg/kg, po administered for 1 hrs relative to control. The format is functional.
Assay [17] has as its system Tyrosine-protein kinase ABL1 (Homo sapiens), P00519 [H396P]. The assay can be described thus: Inhibition of human ABL1 H396P mutant assessed as residual activity at 1 uM using Poly(Ala,Glu,Lys,Tyr)6:2:5:1 as substrate in presence of 33P-ATP by ProQinase assay relative to control.
Assay [18] concerns the target Mitogen-activated protein kinase kinase kinase 10 (Homo sapiens) (UniProt Q02779). As to the kind of experiment: Inhibition of human MAP3K10 assessed as residual activity at 1 uM using histon H2B as substrate in presence of 33P-ATP by ProQinase assay relative to control.
Assay [19] deals with Serine/threonine-protein kinase Nek6 (Homo sapiens) (UniProt Q9HC98). The assay can be described thus: Inhibition of NEK6 (unknown origin) assessed as remaining activity at 1 uM by Kinome scan method relative to control.
Assay [20] concerns Hepatocyte growth factor receptor (Homo sapiens), P08581 [Y1230D]. As to the kind of experiment: Inhibition of human MET Y1230D mutant assessed as residual activity at 1 uM using poly(Ala,Glu,Lys,Tyr)6:2:5:1 as substrate in presence of 33P-ATP by ProQinase assay relative to control.
Assay [21] concerns the target Protein-tyrosine kinase 2-beta (Homo sapiens) (UniProt Q14289). The assay can be described thus: Inhibition of PYK2 (unknown origin) assessed as remaining activity at 1 uM by Kinome scan method relative to control.
Assay [22] concerns Hepatocyte growth factor receptor (Homo sapiens), P08581 [Y1230H]. The assay can be described thus: Inhibition of human MET Y1230H mutant assessed as residual activity at 1 uM using poly(Ala,Glu,Lys,Tyr)6:2:5:1 as substrate in presence of 33P-ATP by ProQinase assay relative to control.

Chain of Serine/threonine-protein kinase OSR1 (Homo sapiens) (O95747 2-527 limits assumed): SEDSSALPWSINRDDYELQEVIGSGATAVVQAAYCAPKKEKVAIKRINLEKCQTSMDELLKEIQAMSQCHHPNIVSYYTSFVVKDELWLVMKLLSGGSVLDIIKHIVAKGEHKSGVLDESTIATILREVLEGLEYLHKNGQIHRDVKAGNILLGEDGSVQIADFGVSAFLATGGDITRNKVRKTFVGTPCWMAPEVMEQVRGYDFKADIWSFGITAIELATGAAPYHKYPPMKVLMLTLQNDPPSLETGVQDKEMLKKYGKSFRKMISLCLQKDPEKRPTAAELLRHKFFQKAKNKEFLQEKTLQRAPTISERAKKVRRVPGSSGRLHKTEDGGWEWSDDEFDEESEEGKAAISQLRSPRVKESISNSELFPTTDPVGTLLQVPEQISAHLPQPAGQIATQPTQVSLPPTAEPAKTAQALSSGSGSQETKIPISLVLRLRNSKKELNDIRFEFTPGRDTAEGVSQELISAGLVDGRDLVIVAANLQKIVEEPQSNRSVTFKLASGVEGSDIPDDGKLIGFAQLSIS
Chain of Mitogen-activated protein kinase kinase kinase 10 (Homo sapiens) (Q02779 whole entry, looked up): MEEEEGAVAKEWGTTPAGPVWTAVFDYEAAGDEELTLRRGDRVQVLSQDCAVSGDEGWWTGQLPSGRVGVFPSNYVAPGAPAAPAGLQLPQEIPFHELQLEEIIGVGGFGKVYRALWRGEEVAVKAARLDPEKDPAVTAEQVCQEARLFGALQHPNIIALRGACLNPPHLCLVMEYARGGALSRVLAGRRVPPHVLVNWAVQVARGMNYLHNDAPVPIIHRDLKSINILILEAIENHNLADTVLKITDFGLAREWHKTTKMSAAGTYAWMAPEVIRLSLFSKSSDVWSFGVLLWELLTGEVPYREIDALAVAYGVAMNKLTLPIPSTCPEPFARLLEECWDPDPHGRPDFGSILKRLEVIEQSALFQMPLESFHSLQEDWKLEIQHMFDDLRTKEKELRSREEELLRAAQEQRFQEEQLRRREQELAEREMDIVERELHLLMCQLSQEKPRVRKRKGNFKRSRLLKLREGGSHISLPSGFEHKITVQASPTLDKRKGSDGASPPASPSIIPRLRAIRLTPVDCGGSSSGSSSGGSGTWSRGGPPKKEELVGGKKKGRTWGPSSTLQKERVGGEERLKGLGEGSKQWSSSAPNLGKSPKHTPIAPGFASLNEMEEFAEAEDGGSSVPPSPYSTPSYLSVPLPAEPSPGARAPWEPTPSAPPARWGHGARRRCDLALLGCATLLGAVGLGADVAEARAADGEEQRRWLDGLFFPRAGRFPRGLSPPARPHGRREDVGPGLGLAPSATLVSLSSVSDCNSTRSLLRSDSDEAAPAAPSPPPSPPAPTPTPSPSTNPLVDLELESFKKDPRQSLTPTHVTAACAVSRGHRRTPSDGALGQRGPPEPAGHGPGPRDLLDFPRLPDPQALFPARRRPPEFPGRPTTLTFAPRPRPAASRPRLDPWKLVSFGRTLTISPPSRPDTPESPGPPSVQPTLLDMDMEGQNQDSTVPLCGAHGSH
Chain of Serine/threonine-protein kinase haspin (Homo sapiens) (Q8TF76 whole entry): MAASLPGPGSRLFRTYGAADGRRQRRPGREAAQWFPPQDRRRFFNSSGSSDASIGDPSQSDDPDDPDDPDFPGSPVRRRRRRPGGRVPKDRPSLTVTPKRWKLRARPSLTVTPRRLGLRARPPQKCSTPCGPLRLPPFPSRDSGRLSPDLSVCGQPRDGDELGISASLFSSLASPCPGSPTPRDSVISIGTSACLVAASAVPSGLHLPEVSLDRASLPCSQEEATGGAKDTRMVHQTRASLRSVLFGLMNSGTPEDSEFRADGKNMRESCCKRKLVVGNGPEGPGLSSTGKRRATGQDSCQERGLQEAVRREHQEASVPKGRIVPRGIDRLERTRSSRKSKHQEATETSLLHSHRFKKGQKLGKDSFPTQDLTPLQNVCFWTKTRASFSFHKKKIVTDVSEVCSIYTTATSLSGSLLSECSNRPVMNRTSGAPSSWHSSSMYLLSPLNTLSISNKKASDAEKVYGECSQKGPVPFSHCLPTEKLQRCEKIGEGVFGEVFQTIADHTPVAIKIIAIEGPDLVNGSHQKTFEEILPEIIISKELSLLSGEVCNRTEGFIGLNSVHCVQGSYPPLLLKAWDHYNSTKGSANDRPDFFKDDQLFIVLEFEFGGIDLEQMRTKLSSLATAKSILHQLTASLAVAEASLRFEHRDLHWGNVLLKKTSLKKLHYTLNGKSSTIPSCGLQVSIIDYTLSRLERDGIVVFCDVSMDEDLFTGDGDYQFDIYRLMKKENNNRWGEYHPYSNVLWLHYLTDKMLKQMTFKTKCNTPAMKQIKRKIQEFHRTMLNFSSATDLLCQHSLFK
Chain of Eukaryotic translation initiation factor 2-alpha kinase 3 (Homo sapiens) (Q9NZJ5 whole entry): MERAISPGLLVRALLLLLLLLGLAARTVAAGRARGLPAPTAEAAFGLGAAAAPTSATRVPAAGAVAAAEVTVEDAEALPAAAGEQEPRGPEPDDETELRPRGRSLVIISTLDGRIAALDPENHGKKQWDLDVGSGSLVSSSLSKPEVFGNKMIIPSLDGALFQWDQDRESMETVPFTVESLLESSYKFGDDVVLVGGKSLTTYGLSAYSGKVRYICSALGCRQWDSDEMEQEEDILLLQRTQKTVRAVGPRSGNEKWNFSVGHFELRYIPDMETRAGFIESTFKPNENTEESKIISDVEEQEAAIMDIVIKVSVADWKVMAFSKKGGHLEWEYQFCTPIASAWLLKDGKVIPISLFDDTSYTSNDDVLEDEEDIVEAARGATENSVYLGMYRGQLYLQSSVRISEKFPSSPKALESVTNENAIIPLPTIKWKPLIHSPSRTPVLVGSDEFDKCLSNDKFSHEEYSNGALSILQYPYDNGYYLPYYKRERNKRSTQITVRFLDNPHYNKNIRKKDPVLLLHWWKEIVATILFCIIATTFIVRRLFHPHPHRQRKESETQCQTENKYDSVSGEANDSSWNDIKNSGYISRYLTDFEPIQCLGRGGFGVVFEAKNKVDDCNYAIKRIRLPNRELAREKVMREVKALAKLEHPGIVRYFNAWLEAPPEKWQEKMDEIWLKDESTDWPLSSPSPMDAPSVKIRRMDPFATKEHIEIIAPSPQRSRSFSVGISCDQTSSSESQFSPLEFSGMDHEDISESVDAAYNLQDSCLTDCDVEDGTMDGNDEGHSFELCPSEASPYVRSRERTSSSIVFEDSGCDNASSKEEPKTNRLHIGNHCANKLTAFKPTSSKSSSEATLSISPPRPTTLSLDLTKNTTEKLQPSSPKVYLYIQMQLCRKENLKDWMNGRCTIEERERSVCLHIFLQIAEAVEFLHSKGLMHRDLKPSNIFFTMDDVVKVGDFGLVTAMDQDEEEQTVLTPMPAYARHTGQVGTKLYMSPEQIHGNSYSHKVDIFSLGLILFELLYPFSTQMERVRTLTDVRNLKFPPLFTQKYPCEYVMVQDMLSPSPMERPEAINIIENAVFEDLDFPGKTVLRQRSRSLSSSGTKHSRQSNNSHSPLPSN
Chain of Ephrin type-A receptor 8 (Homo sapiens) (P29322 whole entry): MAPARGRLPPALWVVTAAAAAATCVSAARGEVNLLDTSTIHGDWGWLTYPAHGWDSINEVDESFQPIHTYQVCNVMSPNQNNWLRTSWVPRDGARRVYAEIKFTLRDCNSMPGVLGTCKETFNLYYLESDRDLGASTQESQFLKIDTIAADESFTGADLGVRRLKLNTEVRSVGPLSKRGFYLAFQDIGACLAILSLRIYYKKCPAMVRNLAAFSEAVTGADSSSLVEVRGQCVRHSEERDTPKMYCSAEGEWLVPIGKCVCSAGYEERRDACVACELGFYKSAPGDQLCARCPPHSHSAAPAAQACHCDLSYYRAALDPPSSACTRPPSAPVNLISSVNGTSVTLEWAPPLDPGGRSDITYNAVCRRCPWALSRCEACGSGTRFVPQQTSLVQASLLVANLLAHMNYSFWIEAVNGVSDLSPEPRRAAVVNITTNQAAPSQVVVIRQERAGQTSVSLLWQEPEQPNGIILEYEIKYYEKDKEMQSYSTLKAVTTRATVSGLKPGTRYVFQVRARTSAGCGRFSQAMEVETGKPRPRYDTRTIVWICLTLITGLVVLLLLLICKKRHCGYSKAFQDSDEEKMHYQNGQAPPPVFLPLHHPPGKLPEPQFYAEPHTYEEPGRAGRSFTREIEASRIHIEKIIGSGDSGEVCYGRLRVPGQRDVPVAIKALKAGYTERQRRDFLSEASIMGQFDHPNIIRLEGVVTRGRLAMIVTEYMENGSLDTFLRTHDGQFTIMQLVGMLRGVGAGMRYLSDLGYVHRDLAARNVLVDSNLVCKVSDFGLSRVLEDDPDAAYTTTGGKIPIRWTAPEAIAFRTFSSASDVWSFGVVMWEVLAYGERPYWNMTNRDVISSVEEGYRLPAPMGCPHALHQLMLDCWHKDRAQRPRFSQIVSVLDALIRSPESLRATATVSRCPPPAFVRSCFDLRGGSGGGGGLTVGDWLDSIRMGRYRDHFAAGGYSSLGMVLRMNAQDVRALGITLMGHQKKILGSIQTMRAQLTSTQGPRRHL
Chain of Serine/threonine-protein kinase Nek6 (Homo sapiens) (Q9HC98 whole entry): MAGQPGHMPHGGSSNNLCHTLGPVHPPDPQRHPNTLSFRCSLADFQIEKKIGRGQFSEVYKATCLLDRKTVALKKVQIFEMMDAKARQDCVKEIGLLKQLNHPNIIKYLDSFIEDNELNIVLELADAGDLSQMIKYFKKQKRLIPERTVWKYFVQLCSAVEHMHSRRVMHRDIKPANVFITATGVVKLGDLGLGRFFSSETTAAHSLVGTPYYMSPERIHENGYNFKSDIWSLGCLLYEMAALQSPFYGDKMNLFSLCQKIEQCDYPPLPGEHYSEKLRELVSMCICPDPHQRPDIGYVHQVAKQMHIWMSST

As for `O=C1c2ccc(Nc3ccc(F)cc3F)cc2CCc2ccc(OC[C@H](O)CO)cc21` [Skepinone-L], the Activity in [1] was determined as 100%; in assay [2], 102%; in assay [3], 98%; in assay [4], 93%; in assay [5], 95%; in assay [6], 105%. Also, the Activity was 119% in assay [7]; 95% in assay [8]; 90% in assay [9]; 85% in assay [10]; 93% in assay [11]; 102% in [12]. The Activity in assay [13] stood at 95%; in [14] it was 89%; in [15] it was 82%; in [16] it was 115%; in [17], 99%; in assay [18], 101%. Besides, the Activity in [19] came to 100%; in assay [20], 95%; in assay [21] it was 100%; in assay [22], 102%. Also, the inhibition in vivo at 3 mg/kg in the assay with Mus musculus is 77%.

What is called inhibition in vivo is the change of the read-out against control, counted positive when it falls.
